The record followed here is patent publication US20220257523A1, “COMPOSITE DRUG PARTICLES AND USES THEREOF” (The Regents of the University of Michigan, priority 2019, published 2022).

The subject of series [1] is inguinal fat pads of genetically obese mice. Nature of the series: In vivo lipolysis after subcutaneous injection into inguinal fat pad. Also on record: species or system mice (B6.Cg-Lep^ob/J). How it is done: Animal studies were conducted following the National Institute of Health guidelines for the care and use of laboratory animals and approved by the Institutional Animal Care and Use Committee (IACUC) of the University of Michigan. 8-10 week old female genetically obese (B6.Cg-Lep^ob/J) mice purchased from The Jackson Laboratory were used. The in vivo trials were replicated for 3 animals. All the animals had the same age and the average weight of the animals in each group were matched prior to the initiation of the study.
In vivo lipolysis assays were performed via subcutaneous injection of rhodamine-loaded deoxycholate microparticles into the inguinal fat pads of genetically obese mice alongside the salt solution and vehicle control. Genetically obese mice were anesthetized using isoflurane, shaved, and subcutaneously injected with 100 μL of the suspension of rhodamine-loaded deoxycholate particles or the solution of deoxycholate salt in saline (25 mg/mL) or vehicle control into their right inguinal fat pad. 100 μL of pure saline was injected into the left fat pad of the animals as the control. The weight and appearance of the animals was tracked over the course of two weeks. One group of the animals received a second dosage of particles on Day 7. After 14 days, the animals were euthanized, the right and left fat pad of the animals were removed, weighed, and fixed in 10% formalin solution overnight. Histology slides of the samples were prepared via paraffin embedding and standard hematoxylin and eosin staining. The histology slides were analyzed by blindfolded physicians and the digital scans were analyzed using QuPath software.

In series [2] the test system is primary subcutaneous human adipocytes. Nature of the series: Adipocyte lysis assay (MTS viability). Type of series: cell-based. How it is done: The capability of the particle formulation to kill fat cells was tested by incubating them with primary subcutaneous human adipocytes. The primary subcutaneous human adipocytes cultured in 96-well plates were purchased from Zen-Bio (Research Triangle, NC). Upon arrival, 150 μl of the media was removed from each well, and the cells were incubated at 37° C. and 5% CO2. For the lysis assays, 150 μl of the salt solution or particle suspension of the known concentration in FBS free RPMI-medium were incubated for a known time-point. Afterward, the treatment solution was aspirated, the cells were washed with warm PBS, and 150 μl of a 1:25 dilution in 1×PBS of MTS assay cell titer (purchased from Promega Corporation, Madison, Wis.) was added to each well. Plates were incubated at 37° C. and 5% CO2 for 3 hr until the appearance of the orange color in the untreated control wells and the absorbance was measured at 490 nm. The cell viability was quantified via subtracting the background cell titer absorbance from the absorbance of the desired point and dividing it by the average signal of the untreated cells after subtracting the background.

The test system of series [3] is Human umbilical vein endothelial cells (HUVECs). Nature of the series: HUVEC cell lysis assay (MTS viability).
Description: After the desired time-point, the treatment solution/suspension was removed from the wells, the cells were washed with warm 1X phosphate buffered saline (PBS) and incubated with 1 ml of the 1:25 dilution of MTS assay cell titer (Promega, WI) in 1×PBS at 37° C. and 5% CO2 for 2 hr until the appearance of the orange color in the untreated control wells. The absorbance was then measured at 490 nm, and each condition was repeated in triplicate. The percentage of the cell viability was quantified via subtracting the background cell titer absorbance from the absorbance of the desired point and dividing it by the average signal of the untreated cells after subtracting the background.

Consider `C[C@H](CCC(=O)[O-])[C@H]1CC[C@H]2[C@@H]3CC[C@@H]4C[C@H](O)CC[C@]4(C)[C@H]3C[C@H](O)[C@]12C.[Na+]` [sodium deoxycholate], for which the “time at which an ulcer developed in all of the animals” value in series [1] (100 μL of 25 mg/mL in saline s.c. into right inguinal fat pad) is recorded as 7-9 days post-injection. Moreover, the “skin bruising and inflammation at the injection site” value in series [1] (100 μL of 25 mg/mL in saline s.c. into right inguinal fat pad, particles rhodamine-loaded, one or two dosages) is “severe bruising and inflammation”. In addition, the “local fat loss in the injected fat pad” value in series [1] (at euthanasia 14 days post-injection, right versus left fat pad) is recorded as “visual evidence of local fat loss”. For the same molecule, the “weight of the animals during the lipolytic treatment” value in series [1] (over two weeks) is given as “No significant change”. For the same molecule, in series [1] (s.c. injection into right inguinal fat pad), the “histology (H&E) of the right fat pad, evidence of fat lysis” value was “Crown-like structures and significant leukocyte infiltration”. The “concentration enough to kill the fat cells” value in series [2] (RPMI media, within 1 hr) is recorded as “higher than 0.05%”. Further, the cells killed in series [3] (0.01% solution in media, 1 hr) is listed as around 40%; in series [3] (0.2% salt solution in media, 1 hr), “approximately 95%”. In addition, the cells still alive result in series [3] (0.1% salt in 5% BSA, 3 hr) is recorded as “around 25%”. The cell death entry in series [3] (0.1% salt in media, 3 hr) was “nearly all the cells”. In addition, the cells lysed entry in series [3] (concentrations higher than 0.2%, 1 hr) was “all the cells”.

With `C[C@H](CCC(=O)[O-])[C@H]1CC[C@H]2[C@@H]3[C@H](O)C[C@@H]4C[C@H](O)CC[C@]4(C)[C@H]3C[C@H](O)[C@]12C.[Na+]` [sodium cholate], the cells killed entry in series [2] (1% solution in RPMI media) is “all the cells”.
